Assays:
[1] = Removal of 2-nonenal by arginine aspartate (HPLC over time); details: 0.05 wt % 2-nonenal treated with 2.5 wt % arginine aspartate, room temperature, after 20 hours
Description: The ability of the arginine aspartate of Formula (I) according to the present invention to remove 2-nonenal was evaluated.
2-Nonenal was dissolved at a concentration of 0.1 wt % (1000 ppm) in 50 wt % ethanol aqueous solution containing 0.5 wt % Tween 80. Arginine aspartate was dissolved at a concentration of 5 wt % (50000 ppm) in a 50 wt % ethanol aqueous solution containing 0.5 wt % Tween 80.
The two solutions were mixed in a 1:1 ratio by weight to make a mixed solution. The mixed solution was left at room temperature and the change in the amount of 2-nonenal was analyzed by HPLC over time. That is, the change in the amount of 2-nonenal over time was analyzed by treating 0.05 wt % 2-nonenal with arginine aspartate at a concentration of 2.5 wt %.
Further, the 2-nonenal solution prepared above was diluted two-fold with a 50 wt % ethanol aqueous solution containing 0.5 wt % Tween 80 and the diluted solution was left at room temperature to analyze the change in the amount of 2-nonenal over time by HPLC. That is, the change in the amount of 2-nonenal over time was analyzed in a condition of 0.05 wt % of 2-nonenal untreated with arginine aspartate.

MMP-1 = MMP-1 expression level in human skin fibroblasts (PCR); assay type: cell-based
Description: Human skin fibroblasts were cultured at a concentration of 1×10^4/well. The cells were treated with arginine aspartate for each concentration, and the MMP-1 expression level was measured using a PCR device to evaluate the ability of arginine aspartate to inhibit MMP-1. A group in which the cells were not treated with the sample was used as a control group (CON), and a group in which the cells were treated with 50 ppm of adenosine was used as a positive control group.

TNF-α = test: Anti-inflammatory effect: TNF-α expression in UVB-stimulated HaCaT cells (RT-PCR); assay type: cell-based; details: UVB stimulation
Description: HaCaT cells were seeded in a 12-well plate by 1×10^5 cells/well, and after 24 hours, they were replaced with a basal medium and starvated for 6 hours. After that, the medium was replaced with the basal medium containing the sample and the cells were incubated for 24 hours. After removal of the medium, UVB stimulation was applied, and the basal medium was added and the cells were cultured for 24 hours. The medium was completely removed and the cells were washed twice with PBS. The cells were disrupted using TRIsure to recover RNA, and then RT-PCR was performed to amplify TNF-α. Electrophoresis was performed on an agarose gel and the expression rate was measured using the Gel Documentation system. 200 μM dexamethasone was used as a positive control.

mushroom tyrosinase = test: Whitening effect: mushroom tyrosinase activity (absorbance at 490 nm); assay type: biochemical; details: for Tyrosinase activity (% of control): 37° C. for 10 minutes, pH 6.8
Description: After adding 200 μL of 0.1M phosphate buffer (pH 6.8) to the Eppen tube, 20 μL of each sample solution diluted at each concentration was added. Then, 20 μL of mushroom tyrosinase (2,000 units/μL) and 200 μL of 0.3% tyrosine were added in order, and then reacted at 37° C. for 10 minutes. After 200 μL of this solution was transferred to a 96-well plate, absorbance was measured at 490 nm using an ELISA reader. 100 ppm arbutin was used as a positive control.

Procollagen = test: Collagen synthesis ability in human skin fibroblasts (Type I Procollagen C-Peptide EIA kit); assay type: cell-based
Description: Human skin fibroblasts were cultured at a concentration of 1×10^4/well. The cells were treated with each sample, and the amount of synthesized collagen was measured to evaluate the collagen synthesis ability. The cells were treated with adenosine at a concentration of 50 ppm as a positive control and arginine aspartate at a concentration of 10, 20 and 40 ppm. Collagen quantification was performed using a Type I Procollagen C-Peptide EIA kit (Takara, Japan). A group in which the cells were not treated with sample was used as a control group (CON).

arginine aspartate
amount of 2-nonenal decreased [1]: 74%
amount of 2-nonenal left compared to the initial 100% by weight [1]: 26 % by weight
MMP-1 gene expression level (% of control) (MMP-1; 10 ppm): 86.7 % of control
MMP-1 gene expression level (% of control) (MMP-1; 20 ppm): 82.2 % of control
MMP-1 gene expression level (% of control) (MMP-1; 40 ppm): 76.6 % of control
inhibitory effect on MMP-1 (MMP-1; 40 ppm): 23.4%
TNF-α gene expression level (% of control) (TNF-α; 10 ppm): 76.0 % of control
TNF-α gene expression level (% of control) (TNF-α; 20 ppm): 72.9 % of control
TNF-α gene expression level (% of control) (TNF-α; 40 ppm): 72.6 % of control
decrease in TNF-α expression level (TNF-α; 40 ppm): 37.4%
Tyrosinase activity (% of control) (mushroom tyrosinase; 10 ppm): 72.5 % of control
inhibition in tyrosinase activity (mushroom tyrosinase; 100 ppm): 28.3%
Tyrosinase activity (% of control) (mushroom tyrosinase; 100 ppm): 71.7 % of control
collagen synthesis compared to the control group (CON) (Procollagen; 10, 20 and 40 ppm): increase in collagen synthesis
Type I procollagen C-peptide level (% of control) (Procollagen; 10 ppm): 123.6 % of control
Type I procollagen C-peptide level (% of control) (Procollagen; 20 ppm): 133.0 % of control
Type I procollagen C-peptide level (% of control) (Procollagen; 40 ppm): 136.8 % of control

OC[C@H]1O[C@@H](Oc2ccc(O)cc2)[C@H](O)[C@@H](O)[C@@H]1O [Arbutin, arbutin, reference compound]
Tyrosinase activity (% of control) (mushroom tyrosinase; 10 ppm): 93.6 % of control
Tyrosinase activity (% of control) (mushroom tyrosinase; 100 ppm): 76.7 % of control

C[C@@H]1C[C@H]2[C@@H]3CCC4=CC(=O)C=C[C@]4(C)[C@@]3(F)[C@@H](O)C[C@]2(C)[C@@]1(O)C(=O)CO [Dexamethasone, dexamethasone, reference compound]
TNF-α gene expression level (% of control) (TNF-α; 50 ppm (table)): 66.9 % of control

Nc1ncnc2c1ncn2[C@@H]1O[C@H](CO)[C@@H](O)[C@H]1O [Adenosine, adenosine, reference compound]
MMP-1 gene expression level (% of control) (MMP-1; 50 ppm): 73.9 % of control
Type I procollagen C-peptide level (% of control) (Procollagen; 50 ppm): 142.2 % of control
